One series has as its system Anser anser. To be noted: not reported; oral; feed; mortality.
A further series has as its system Coturnix coturnix. To be noted: repeat dose other; food consumption.
The next series deals with Perdix sp. The note with it: not reported; mortality.
The subject of a further series is Bibionidae. The note with it: chronic/long-term; duration: 28 days; other.
The test system of the next series is Canidae. The note with it: for NOAEL: oral.
A further series has as its system Daphnia magna. To be noted: chronic/long-term, duration: 21 days.
The next series deals with Equus caballus. The note with it: short-term; duration: 14 days; oral; feed; M/F; no effects.
The subject of another series is Pleurozium sp. To be noted: acute; duration: 72 hours; growth.
The subject of another series is Sinapis alba. The note with it: not reported; no effects.
For a further series, the system named is Sus scrofa. The note with it: short-term; duration: 10 days; Not specified; no effects.
The next series deals with Tagia sp. To be noted: for NOEC: chronic/long-term, duration: 56 days.
A further series relates to Triticum sp. To be noted: not reported; no effects.
In series [1] the test system is Vigna radiata var. radiata. To be noted: not reported; no effects.
For the next series, the system named is Coturnix japonica. The note with it: acute; oral; mortality.
Another series relates to Apis mellifera. To be noted: acute, mortality.
For the next series, the system named is Neomysis kadiakensis. To be noted: acute; duration: 96 hours; mortality.
The test system of a further series is Oncorhynchus mykiss. The note with it: for LC50: acute, duration: 96 hours, mortality.
A further series has as its system Anatidae. The note with it: subchronic; duration: 7 weeks; body weight.
A further series has as its system Bovidae. The note with it: subchronic; duration: 30 days; oral; gavage; histopathology: neoplastic.
A further series has as its system Ictalurus punctatus. To be noted: not reported; mortality.
Another series deals with Chalcophaps sp. The note with it: subchronic; oral; feed; clinical chemistry.
Series [2] deals with Aphidius rhopalosiphi. To be noted: not reported; mortality.
Series [3] concerns Typhlodromus pyri. To be noted: not reported; mortality.
Series [4] deals with Typhlodromus pyri. Put plainly: LR50; higher = less toxic. To be noted: not reported; mortality.
For a further series, the system named is Homo sapiens. The note with it: clinical; oral; M; clinical signs.
Another series has as its system Macaca mulatta. The note with it: chronic; duration: 1 years; oral; gavage; M/F; clinical signs.
The test system of series [5] is Aphidius rhopalosiphi. The experiment in a line: LR50; higher = less toxic. The note with it: not reported; mortality.
[6] abbreviates: subchronic, duration: 5 weeks, clinical signs.

Converted amounts (≈) assume the structure as drawn. Some results are limits rather than exact numbers.

Turning to `Br.O=C(C[C@H]1NCCC[C@@H]1O)Cn1cnc2cc(Br)c(Cl)cc2c1=O` [Halofuginone hydrobromide], the LEL with Anser anser is 3 mg/kg; in the series on Coturnix coturnix, 3 mg/kg-day; with Gallus gallus (subchronic, duration: 8 weeks, oral, diet, hematological), 6 mg/kg-day; with Meleagris sp. (chronic/long-term, duration: 20 weeks, oral, feed, body weight) it was 9 mg/kg; in the series with Oryctolagus sp. (repeat dose other, food consumption), 3 mg/kg-day; in the series with Perdix sp. it was 3 mg/kg. Also, in the series on Oryctolagus sp. (reproduction developmental, body weight), the NOEL was 0.03 mg/kg-day.
With `CCCCCCCCCCOc1cc2c(=O)c(C(=O)OCC)c[nH]c2cc1OCC` [Decoquinate], the NOEC (subchronic, duration: 56 days, other) is at least 9.2 mg/kg-day; the NOEC with Bibionidae was found to be 16.3 mg/kg; the NOEC in the series on Daphnia magna (no effects) came to 35.2 µg/L; the NOEC with Pleurozium sp. turned out to be 73 µg/L; the NOEC in the series with Sinapis alba was at most 100 mg/kg; the NOEC in the series on Tagia sp. (no effects) was over 1000 mg/kg. The NOEC was 1000 mg/kg in the series on Tagia sp. (reproduction), at most 100 mg/kg in the series on Triticum sp. and at most 100 mg/kg in series [1]. Also, the NOEL with Canidae (subchronic, duration: 12 weeks, Beagle, behavior) worked out at 15 mg/kg-day; in the series on Oryctolagus sp. (developmental, duration: 11 days, oral, capsule, F, New Zealand, development) it was 60 mg/kg-day; in the series on Rattus norvegicus (developmental, duration: 11 days, oral, gavage, F, Sprague-Dawley, development) it was 100 mg/kg-day. The LEL in the series on Equus caballus is 6.25 mg/kg-day; with Gallus gallus (short-term, duration: 21 days, no effects) it was at most 150 mg/L; with Gallus gallus (subchronic, duration: 35 days, oral, diet, Chicken, no effects), 400 mg/kg-day; in the series with Gallus gallus (subchronic, duration: 42 days, oral, diet, no effects), 400 mg/kg-day; in the series on Sus scrofa, 80 mg/kg-day. Further, the NOAEL (as a rule, the highest tested level that showed no adverse finding) in the series with Oryctolagus sp. (reproduction developmental, F, mortality) turned out to be 60 mg/kg-day.
The compound `CNC(=O)Oc1cc(C)c(SC)c(C)c1` [Methiocarb] yielded an LC50 in the series with Anas platyrhynchos (short-term, oral, feed, mortality) of 1070 mg/kg. For the same compound, the NOEC in the series on Colinus virginianus (reproduction developmental, reproduction) amounted to 4.51 mg/kg-day. In addition, in the series on Coturnix japonica, the LD50 was 5 mg/kg.
For `O=[N+]([O-])/N=C1\NCCN1Cc1ccc(Cl)nc1` [Imidacloprid], the LD50 in the series on Anas platyrhynchos (acute, oral, unspecified) came to 66 mg/kg-day; in the series on Apis mellifera (dermal), 0.081 µg/piece; with Apis mellifera (duration: 48 hours, dermal), 0.081 µg/piece; in the series with Apis mellifera (duration: 48 hours, oral, unspecified), 0.0037 µg/piece; in the series on Apis mellifera (duration: 120 hours, dermal) it was 0.0251 µg/piece; in the series with Apis mellifera (oral, unspecified), 0.0037 µg/piece. The LD50 in the series on Rattus norvegicus (acute) stood at 256 mg/kg-day. The NOEC is under 2.5 µg/piece with Apis mellifera (dermal); 1800 µg/L in the series with Daphnia magna (reproduction); 9.02 mg/L in the series on Oncorhynchus mykiss (chronic/long-term, duration: 91 days, time to hatch). The NOAEL worked out at 7.8 mg/kg-day with Canidae (subchronic, duration: 90 days, Dog Other, clinical signs); 9.3 mg/kg-day in the series with Colinus virginianus (reproduction developmental); 17 mg/kg-day with Rattus norvegicus (chronic); 5.7 mg/kg-day in the series with Rattus norvegicus (chronic, duration: 2 years, M, histopathology: nonneoplastic); 9.3 mg/kg-day in the series with Rattus norvegicus (subchronic, duration: 90 days, oral, histopathology: nonneoplastic). The NOEL with Colinus virginianus (short-term, oral, diet) came out at 29.4 mg/kg-day. Further, the figures for the LC50 in the series with Neomysis kadiakensis and with Oncorhynchus mykiss were 0.0341 µg/mL (≈ 0.133 µM) and over 83 µg/mL, respectively.
With `CC(=O)OC[C@]12C[C@H](OC(=O)CC(C)C)C(C)=C[C@H]1O[C@H]1[C@H](O)[C@H](OC(C)=O)[C@@]2(C)[C@]12CO2` [T-2 toxin], the LOAEL (in general, the lowest dose or exposure tested at which an adverse effect was seen) was determined as 40 µg/kg-day with Anatidae; 0.3 mg/kg-day in the series on Bovidae; 0.12 mg/kg-day in the series with Gallus gallus (short-term, duration: 24 days, oral, diet, F, reproduction); 0.04 mg/kg-day in the series with Gallus gallus (setting [6]); 48 µg/kg-day with Meleagris sp. (setting [6]). Besides, the NOAEL in the series on Ictalurus punctatus was 13 µg/kg-day; in the series on Oryctolagus sp. (subchronic, oral, diet, F, clinical chemistry), 0.1 mg/kg-day.
Compound `Clc1ccc(C(c2ccc(Cl)cc2)C(Cl)(Cl)Cl)cc1` [DDT] yielded an NOAEL in the series with Anas platyrhynchos (subchronic, mortality) of 0.6 mg/kg-day. Further, the LEL with Chalcophaps sp. was 0.6 mg/kg-day.
Turning to `CC1=CC1` [1-Methylcyclopropene], the NOAEL (reproduction developmental) came out at 22.4 mg/kg-day; the NOAEL with Canidae (subchronic, duration: 90 days, Dog Other, hematological) came out at 22.4 mg/kg-day; the NOAEL with Rattus norvegicus (reproduction developmental) was determined as 543 mg/kg-day; the NOAEL with Rattus norvegicus (reproduction developmental, inhalation) was found to be 6.5 mg/kg-day; the NOAEL in the series with Rattus norvegicus (reproduction developmental, oral, diet, body weight) turned out to be 3.8 mg/kg-day; the NOAEL with Rattus norvegicus (short-term, duration: 3 weeks, inhalation, M) is 68 mg/kg-day. The compound also displayed an NOAEL with Rattus norvegicus (subchronic, duration: 90 days, inhalation, M, hematological) of 9 mg/kg-day. Besides, the LEL in the series on Aphidius rhopalosiphi [2] and with Typhlodromus pyri [3] was 10 mg/kg each time. Moreover, the LD50 in the series with Colinus virginianus (acute, oral, mortality) is over 81 mg/kg-day; with Rattus norvegicus (acute, oral, mortality), over 235 mg/kg-day; in the series with Tagia sp. (acute, mortality) it was over 4.41 ppm. Moreover, the LC50 in the series with Oncorhynchus mykiss is over 0.966 µg/mL; with Rattus norvegicus (acute, inhalation, mortality), over 2.5 µg/mL. The compound further gave an LR50 with Typhlodromus pyri [4] of over 10 ppm.
For the compound `CC(CCc1ccc(O)cc1)NCC(O)c1ccc(O)cc1.Cl` (stereo not drawn) [Ractopamine hydrochloride], the no observed adverse effect level (NOAEL) with Canidae (acute, M/F, Beagle, clinical signs) was 0.002 mg/kg-day; in the series on Macaca mulatta it was 0.125 mg/kg-day. This compound also had an NOEL with Homo sapiens of 0.067 mg/kg-day.
For `COP(=O)(OC)C(O)C(Cl)(Cl)Cl` (stereo not drawn) [Trichlorfon], the LD50 in the series on Rattus norvegicus (acute, oral, F, mortality) worked out at 212 mg/kg-day. In the series on Rattus norvegicus (chronic, oral, M), this compound gave an NOAEL of 13.2 mg/kg-day. In the series with Tagia sp. (acute, duration: 14 days, mortality), this compound gave an LC50 of 140 mg/kg. Further, the LEL in the series on Typhlodromus pyri [3] came out at 1200 g/ha. The LR50 with Aphidius rhopalosiphi [5] worked out at 0.519 g/ha.
